Data as given in paper PMC7070036, “An amber obligate active site-directed ligand evolution technique for phage display” (Nature Communications, 2020).
“And” between values parts separate entries of the source, which are not always exact repeats. Identical values can stand only once. Non-standard residues stand in square brackets, D forms with d. Residues, ends and D or L forms follow the SMILES beside them. Lys(thiomyristoyl) = CCCCCCCCCCCCCC(=S)NCCCC[C@H](N)C(=O)O

How the values were obtained:
SIRT1 = molecular target: T1, SIRT1 (Homo sapiens, UniProt Q96EB6); assay: Continuous fluorogenic sirtuin inhibition assay, SIRT1; type: biochemical; details: mean ± SD of two independent experiments
T1 sequence (Q96EB6 1-747): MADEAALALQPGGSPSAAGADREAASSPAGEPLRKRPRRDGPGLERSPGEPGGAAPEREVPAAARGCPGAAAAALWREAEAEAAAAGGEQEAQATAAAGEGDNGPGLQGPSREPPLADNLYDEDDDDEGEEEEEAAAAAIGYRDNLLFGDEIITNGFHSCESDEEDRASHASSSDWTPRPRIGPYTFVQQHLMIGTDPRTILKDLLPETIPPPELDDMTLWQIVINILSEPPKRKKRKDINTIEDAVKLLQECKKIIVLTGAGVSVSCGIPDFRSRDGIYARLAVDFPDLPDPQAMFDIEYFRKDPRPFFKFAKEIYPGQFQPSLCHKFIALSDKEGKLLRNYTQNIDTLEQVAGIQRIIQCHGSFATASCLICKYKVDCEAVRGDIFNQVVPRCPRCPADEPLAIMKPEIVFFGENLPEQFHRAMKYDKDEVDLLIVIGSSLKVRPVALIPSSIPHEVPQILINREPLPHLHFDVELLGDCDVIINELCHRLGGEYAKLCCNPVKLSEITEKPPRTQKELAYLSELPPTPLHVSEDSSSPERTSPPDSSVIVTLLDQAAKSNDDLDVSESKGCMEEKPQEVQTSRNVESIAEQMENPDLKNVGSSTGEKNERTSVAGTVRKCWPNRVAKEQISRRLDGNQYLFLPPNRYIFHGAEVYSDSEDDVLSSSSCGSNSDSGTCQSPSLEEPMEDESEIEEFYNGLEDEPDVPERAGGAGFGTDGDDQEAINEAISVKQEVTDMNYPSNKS
Method: The continuous assay for comparing isoform specificity of S2P04 was performed using the universal fluorogenic sirtuin substrate described by Schuster et al.[41]. Briefly, the inhibition reactions were performed in 50-µL volumes at 37 °C in black, half-area, 96-well plates. The sirtuin enzyme (0.25 µM) was preincubated with different concentrations of the peptide S2P04 (0.0064–50 µM for SIRT1 and SIRT2, 0.5–100 µM for SIRT3) or TB (0.16–150 µM for SIRT1–SIRT3), and 1 mM NAD^+ in assay buffer (20 mM Tris, pH 7.8, 150 mM NaCl, 5 mM MgCl2, and 1 mM DTT) for 15 min. Following incubation, the reaction started with the addition of the fluorogenic substrate (5 µM), and product formation was monitored by measuring the fluorescence intensity every 20 s for 5 min (SIRT2) or 30 min (SIRT1 and SIRT3) in a BioTek Synergy H1 microplate reader at λex = 320 nm and λem = 408 nm (gain = 130 and read height = 7 mm). Initial rates of product formation were determined by a linear regression of the plot of fluorescence intensity vs. time and normalized relative to 0% (max inhibitor) and 100% (no inhibitor) controls. The assay was repeated to determine the IC50 values of all BuK peptides for SIRT2. IC50 values were determined by nonlinear regression of the plot of the normalized initial rate vs. inhibitor concentration using GraphPad Prism. The determined IC50 values are provided in Supplementary Table 2, and inhibition curves can be seen in Supplementary Fig. 20.

SIRT2 [1] = molecular target: T2, SIRT2 (Homo sapiens, UniProt Q8IXJ6); assay: SIRT2 inhibition assay for thiomyristoyl peptides; type: biochemical
T2 sequence (Q8IXJ6 1-389): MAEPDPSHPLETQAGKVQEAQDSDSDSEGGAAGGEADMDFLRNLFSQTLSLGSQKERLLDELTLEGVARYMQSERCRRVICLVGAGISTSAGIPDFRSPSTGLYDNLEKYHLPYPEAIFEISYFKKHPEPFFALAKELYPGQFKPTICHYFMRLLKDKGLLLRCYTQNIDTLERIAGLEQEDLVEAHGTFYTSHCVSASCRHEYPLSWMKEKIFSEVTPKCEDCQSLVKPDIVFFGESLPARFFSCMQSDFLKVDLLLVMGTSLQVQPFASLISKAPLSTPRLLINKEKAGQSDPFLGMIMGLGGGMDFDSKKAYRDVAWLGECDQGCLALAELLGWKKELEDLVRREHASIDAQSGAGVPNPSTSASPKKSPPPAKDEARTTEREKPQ
Method: Assays were performed in 40-µL volumes at 37 °C in black, 384-well plates. […] Following incubation, the reaction started with the addition of the fluorogenic substrate (5 µM), and product formation was monitored by measuring the fluorescence intensity every 20 s for 5 min (SIRT2) in a BioTek Synergy H1 microplate reader at λex = 320 nm and λem = 408 nm (gain = 130 and read height = 7 mm). Initial rates were determined using the plot of fluorescence vs. time for linear portions of each curve. IC50 values were then determined using GraphPad Prism to fit a nonlinear regression to the normalized rates vs. inhibitor concentration.

SIRT2 [2] = molecular target: T2, SIRT2; assay: SIRT2 inhibition assay, no preincubation; type: biochemical
Method: The inhibition assay was performed using a universal continuous sirtuin substrate. Assays were performed in 40-µL volumes at 37 °C in black, 384-well plates. Five micrometers of substrate was incubated with different concentrations of peptide or TM (0.5–1000 nM in DMF, 20% DMF final concentration) for 2 min in assay buffer (20 mM Tris, pH 7.8, 150 mM NaCl, 5 mM MgCl2, 1 mM DTT, and 1 mM NAD^+). Following incubation, the reaction started with the addition of SIRT2 (10 nM), and product formation was monitored by measuring the fluorescence intensity every 20 s for 10 min (SIRT2) in a BioTek Synergy H1 microplate reader at λex = 320 nm and λem = 408 nm (gain = 130 and read height = 7 mm). Initial rates were determined using the plot of fluorescence vs. time for linear portions of each curve. The IC50 value was determined using GraphPad Prism to fit a nonlinear regression to the normalized rates vs. inhibitor concentration (Supplementary Fig. 30).

FITC-conjugated S2P03 = assay: fluorescence polarisation; SIRT2 serially diluted from 5 uM to 1 nM (24 uL) plus 1 uL of 250 nM FITC-peptide; 50 mM Tris, 137 mM NaCl, 2.7 mM KCl, 1 mM MgCl2, 1 mM DTT, 0.01% Triton X-100, pH 8.0; 37 C for 15-30 min; 384-well plate

Molecule	IC50 (SIRT1) [nM]	IC50 (SIRT2 [1]; 10 nM SIRT2, 15 min preincubation, 5 µM substrate, n = 2) [nM]	activity at 0.000465917 µM (SIRT2 [1]; inhibitor 0.465917 nM) [%]	%Activity, SIRT2 (SIRT2 [1]; inhibitor 0.465917 nM, 0.000465917 µM) [%]	%Activity, SIRT2 (SIRT2 [1]; inhibitor 0.931834 nM, 0.000931834 µM)	activity at 0.00186367 µM (SIRT2 [1]; inhibitor 1.86367 nM) [%]	%Activity, SIRT2 (SIRT2 [1]; inhibitor 1.86367 nM, 0.00186367 µM) [%]	activity at 0.00372734 µM (SIRT2 [1]; inhibitor 3.72734 nM) [%]	%Activity, SIRT2 (SIRT2 [1]; inhibitor 3.72734 nM, 0.00372734 µM) [%]	%Activity, SIRT2 (SIRT2 [1]; inhibitor 7.45468 nM, 0.00745468 µM)	activity at 0.0149094 µM (SIRT2 [1]; inhibitor 14.9094 nM) [%]	%Activity, SIRT2 (SIRT2 [1]; inhibitor 14.9094 nM, 0.0149094 µM) [%]	%Activity, SIRT2 (SIRT2 [1]; inhibitor 477.099 nM, 0.477099 µM)	%Activity, SIRT2 (SIRT2 [1]; inhibitor 954.198 nM, (Activity/Activity w/o inhibitor)*100, single trials, 0.954198 µM)	change in IC50 without preincubation of enzyme (SIRT2 [2])	Kd (FITC-conjugated S2P03) [nM]
CCCCCCCCCCCCCC(=S)NCCCC[C@H](NC(=O)[C@@H](NC(=O)[C@@H](NC(=O)[C@@H](N)CS)[C@@H](C)O)C(C)C)C(=O)N[C@H](C(=O)N[C@@H](CO)C(=O)N[C@@H](CC(C)C)C(N)=O)[C@@H](C)O [S2P03-tMyK] (H-CTV[Lys(thiomyristoyl)]TSL-NH2)	400 ± 100	10 ± 3	102	98.0615	113.937% and 81.1704%	99.7	95.1685	96.6	82.1027	52.8299% and 73.9018%	40.8	45.2416	3.151% and -3.151%	11.9872% and 2.232%	insignificant change in IC50	–
recombinant human SIRT2 (enzyme) MAEPDPSHPLETQAGKVQEAQDSDSDSEGGAAGGEADMDFLRNLFSQTLSLGSQKERLLDELTLEGVARYMQSERCRRVICLVGAGISTSAGIPDFRSPSTGLYDNLEKYHLPYPEAIFEISYFKKHPEPFFALAKELYPGQFKPTICHYFMRLLKDKGLLLRCYTQNIDTLERIAGLEQEDLVEAHGTFYTSHCVSASCRHEYPLSWMKEKIFSEVTPKCEDCQSLVKPDIVFFGESLPARFFSCMQSDFLKVDLLLVMGTSLQVQPFASLISKAPLSTPRLLINKEKAGQSDPFLGMIMGLGGGMDFDSKKAYRDVAWLGECDQGCLALAELLGWKKELEDLVRREHASIDAQSGAGVPNPSTSASPKKSPPPAKDEARTTEREKPQ	–	–	–	–	–	–	–	–	–	–	–	–	–	–	–	49
